Assay: Phase 1/2 first-in-human clinical study, safety evaluation (DLT, TEAE, SAE)
Procedure: Arm A: Patients without azole antifungal treatment within 7 days (or 21 days for isavuconazole) of first dose of the present compound
Arm B: Patients receiving posaconazole, voriconazole, or fluconazole antifungal prophylaxis at enrollment
The safety of each dose level also was evaluated by the SRC, which was comprised of all investigators participating in the study and selected Sponsor study team members. The dose recommended by the BLRM method was treated as guidance and was integrated with a clinical assessment of toxicity information and review of other available data, including safety, PK, pharmacodynamic, and laboratory data.
When the Dose Limiting Toxicity (DLT) evaluation for each cohort was completed, the SRC determined a next dose level based on the DLT and other available data, including safety, PK, pharmacodynamic, and laboratory data with reference to the Bayesian Logistic Regression Model (BLRM) recommendation.
Dose escalation decisions were made after all patients in a dose level cohort have at least completed Cycle 1. All available data were presented along with the BLRM predictions for toxicity probabilities at the potential next dose levels. The SRC then determined the dose(s) for the next cohort(s).

C=C1C[C@@H]2CC[C@H]1[C@@H](C(=O)N1CCC3(CC1)CN(c1ncncc1Oc1ccc(F)cc1C(=O)N(C(C)C)C(C)C)C3)N2 [the present compound, 5-fluoro-2-[(4-{7-[(1S,3S,4R)-5-methylidene-2-azabicyclo[2.2.2]octane-3-carbonyl]-2,7-diazaspiro[3.5]nonan-2-yl}pyrimidin-5-yl)oxy]-N,N-di(propan-2-yl)benzamide]
TEAE: Infections and Infestations (Arm A N=14, ≥Grade 3): 6 (42.9) n (%) | TEAE: Investigations (Arm A N=14, ≥Grade 3): 4 (28.6) n (%) | TEAE: Metabolism and nutrition disorders (Arm A N=14, ≥Grade 3): 1 (7.1) n (%) | TEAE: Musculoskeletal and connective tissue disorders (Arm A N=14, ≥Grade 3): 0 n (%) | TEAE: Nausea (Arm A N=14, ≥Grade 3): 0 n (%) | TEAE: Nervous System Disorders (Arm A N=14, ≥Grade 3): 2 (14.3) n (%) | TEAE: Oedema peripheral (Arm A N=14, ≥Grade 3): 0 n (%) | TEAE: Pain in extremity (Arm A N=14, ≥Grade 3): 0 n (%) | TEAE: Platelet count decreased (Arm A N=14, ≥Grade 3): 1 (7.1) n (%) | TEAE: Pneumonia (Arm A N=14, ≥Grade 3): 2 (14.3) n (%) | TEAE: Pruritus (Arm A N=14, ≥Grade 3): 0 n (%) | TEAE: Pyrexia (Arm A N=14, ≥Grade 3): 0 n (%) | TEAE: Respiratory, thoracic and mediastinal disorders (Arm A N=14, ≥Grade 3): 2 (14.3) n (%) | TEAE: Sepsis (Arm A N=14, ≥Grade 3): 2 (14.3) n (%) | TEAE: Skin and subcutaneous tissue disorders (Arm A N=14, ≥Grade 3): 0 n (%) | TEAE: Stomatitis (Arm A N=14, ≥Grade 3): 0 n (%) | TEAE: Vomiting (Arm A N=14, ≥Grade 3): 0 n (%) | related TEAE: Aspartate aminotransferase increased (Arm A N=14, ≥Grade 3): 0 n (%) | related TEAE: Blood and lymphatic system disorders (Arm A N=14, ≥Grade 3): 0 n (%) | related TEAE: Decreased appetite (Arm A N=14, ≥Grade 3): 0 n (%) | related TEAE: Differentiation syndrome (Arm A N=14, ≥Grade 3): 1 (7.1) n (%) | related TEAE: Gastrointestinal disorders (Arm A N=14, ≥Grade 3): 0 n (%) | related TEAE: General disorders and administration site conditions (Arm A N=14, ≥Grade 3): 0 n (%) | related TEAE: Headache (Arm A N=14, ≥Grade 3): 0 n (%) | related TEAE: Hypertriglyceridaemia (Arm A N=14, ≥Grade 3): 0 n (%) | related TEAE: Hyperuricaemia (Arm A N=14, ≥Grade 3): 0 n (%) | related TEAE: Increased appetite (Arm A N=14, ≥Grade 3): 0 n (%) | related TEAE: Investigations (Arm A N=14, ≥Grade 3): 0 n (%) | related TEAE: Leukocytosis (Arm A N=14, ≥Grade 3): 0 n (%) | related TEAE: Metabolism and nutrition disorders (Arm A N=14, ≥Grade 3): 0 n (%) | related TEAE: Nausea (Arm A N=14, ≥Grade 3): 0 n (%) | related TEAE: Neoplasms benign, malignant and unspecified (incl cysts and polyps) (Arm A N=14, ≥Grade 3): 1 (7.1) n (%) | related TEAE: Nervous system disorders (Arm A N=14, ≥Grade 3): 0 n (%) | related TEAE: Thirst (Arm A N=14, ≥Grade 3): 0 n (%) | related TEAE: Vomiting (Arm A N=14, ≥Grade 3): 0 n (%) | Patients with Any TEAE (Arm B N=10, Any Grade): 10 (100.0) n (%) | TEAE: Alanine aminotransferase increased (Arm B N=10, Any Grade): 2 (20.0) n (%) | TEAE: Anaemia (Arm B N=10, Any Grade): 1 (10.0) n (%) | TEAE: Aspartate aminotransferase increased (Arm B N=10, Any Grade): 2 (20.0) n (%) | TEAE: Blood and lymphatic system disorders (Arm B N=10, Any Grade): 3 (30.0) n (%) | TEAE: Constipation (Arm B N=10, Any Grade): 1 (10.0) n (%) | TEAE: Decreased appetite (Arm B N=10, Any Grade): 0 n (%) | TEAE: Disease progression (Arm B N=10, Any Grade): 2 (20.0) n (%) | TEAE: Dyspnoea (Arm B N=10, Any Grade): 1 (10.0) n (%) | TEAE: Epistaxis (Arm B N=10, Any Grade): 2 (20.0) n (%) | TEAE: Fatigue (Arm B N=10, Any Grade): 2 (20.0) n (%) | TEAE: Gastrointestinal disorders (Arm B N=10, Any Grade): 6 (60.0) n (%) | TEAE: General disorders and administration site disorders (Arm B N=10, Any Grade): 3 (30.0) n (%) | TEAE: Headache (Arm B N=10, Any Grade): 1 (20.0) n (%) | TEAE: Hemorrhoids (Arm B N=10, Any Grade): 2 (20.0) n (%) | TEAE: Hypertriglyceridaemia (Arm B N=10, Any Grade): 2 (20.0) n (%) | TEAE: Hypoalbuminaemia (Arm B N=10, Any Grade): 0 n (%) | TEAE: Hypocalcaemia (Arm B N=10, Any Grade): 1 (10.0) n (%) | TEAE: Hypokalaemia (Arm B N=10, Any Grade): 3 (30.0) n (%) | TEAE: Hypomagnaesemia (Arm B N=10, Any Grade): 0 n (%) | TEAE: Hyponatraemia (Arm B N=10, Any Grade): 0 n (%) | TEAE: Infections and Infestations (Arm B N=10, Any Grade): 6 (60.0) n (%) | TEAE: Investigations (Arm B N=10, Any Grade): 3 (30.0) n (%) | TEAE: Metabolism and nutrition disorders (Arm B N=10, Any Grade): 5 (50.0) n (%) | TEAE: Musculoskeletal and connective tissue disorders (Arm B N=10, Any Grade): 2 (20.0) n (%) | TEAE: Nausea (Arm B N=10, Any Grade): 3 (30.0) n (%) | TEAE: Nervous System Disorders (Arm B N=10, Any Grade): 2 (20.0) n (%) | TEAE: Oedema peripheral (Arm B N=10, Any Grade): 0 n (%) | TEAE: Pain in extremity (Arm B N=10, Any Grade): 1 (10.0) n (%) | TEAE: Platelet count decreased (Arm B N=10, Any Grade): 0 n (%) | TEAE: Pneumonia (Arm B N=10, Any Grade): 2 (20.0) n (%) | TEAE: Pruritus (Arm B N=10, Any Grade): 0 n (%) | TEAE: Pyrexia (Arm B N=10, Any Grade): 0 n (%) | TEAE: Respiratory, thoracic and mediastinal disorders (Arm B N=10, Any Grade): 3 (30.0) n (%) | TEAE: Sepsis (Arm B N=10, Any Grade): 2 (20.0) n (%) | TEAE: Skin and subcutaneous tissue disorders (Arm B N=10, Any Grade): 1 (10.0) n (%) | TEAE: Stomatitis (Arm B N=10, Any Grade): 2 (20.0) n (%) | TEAE: Vomiting (Arm B N=10, Any Grade): 1 (10.0) n (%) | related TEAE: Aspartate aminotransferase increased (Arm B N=10, Any Grade): 1 (10.0) n (%) | related TEAE: Blood and lymphatic system disorders (Arm B N=10, Any Grade): 1 (10.0) n (%) | related TEAE: Decreased appetite (Arm B N=10, Any Grade): 0 n (%) | related TEAE: Differentiation syndrome (Arm B N=10, Any Grade): 0 n (%) | related TEAE: Gastrointestinal disorders (Arm B N=10, Any Grade): 1 (10.0) n (%) | related TEAE: General disorders and administration site conditions (Arm B N=10, Any Grade): 0 n (%) | related TEAE: Headache (Arm B N=10, Any Grade): 0 n (%) | related TEAE: Hypertriglyceridaemia (Arm B N=10, Any Grade): 1 (10.0) n (%) | related TEAE: Hyperuricaemia (Arm B N=10, Any Grade): 0 n (%) | related TEAE: Increased appetite (Arm B N=10, Any Grade): 0 n (%) | related TEAE: Investigations (Arm B N=10, Any Grade): 1 (10.0) n (%) | related TEAE: Leukocytosis (Arm B N=10, Any Grade): 1 (10.0) n (%) | related TEAE: Metabolism and nutrition disorders (Arm B N=10, Any Grade): 1 (10.0) n (%) | related TEAE: Nausea (Arm B N=10, Any Grade): 1 (10.0) n (%) | related TEAE: Neoplasms benign, malignant and unspecified (incl cysts and polyps) (Arm B N=10, Any Grade): 0 n (%) | related TEAE: Nervous system disorders (Arm B N=10, Any Grade): 0 n (%) | related TEAE: Thirst (Arm B N=10, Any Grade): 0 n (%) | related TEAE: Vomiting (Arm B N=10, Any Grade): 1 (10.0) n (%) | Patients with Any TEAE (Arm B N=10, ≥Grade 3): 8 (80.0) n (%) | TEAE: Alanine aminotransferase increased (Arm B N=10, ≥Grade 3): 0 n (%) | TEAE: Anaemia (Arm B N=10, ≥Grade 3): 0 n (%) | TEAE: Aspartate aminotransferase increased (Arm B N=10, ≥Grade 3): 1 (10.0) n (%) | TEAE: Blood and lymphatic system disorders (Arm B N=10, ≥Grade 3): 3 (30.0) n (%) | TEAE: Constipation (Arm B N=10, ≥Grade 3): 0 n (%) | TEAE: Decreased appetite (Arm B N=10, ≥Grade 3): 0 n (%)

From patent publication US20260248787A9, “MEDICAMENT FOR TREATING CANCER COMPRISING OPTICALLY ACTIVE AZABICYCLO RING DERIVATIVE” (Sumitomo Pharma Co., Ltd., priority 2023, published 2026)
